In US20260297060A1, “COMPOUNDS FOR THE DEGRADATION OF MUTANT BRAF” (C4 THERAPEUTICS, INC., priority 2023, published 2026):
Read-outs that look alike come from different tables or passages of the source.

Experiment: Pharmacokinetics in female BALB/c nude mice bearing A375 xenografts, 1 day dosing (PK and PD study): plasma, tumor and brain concentrations, AUC
Format: in vivo
From the text: The concentrations of Dabrafenib, Compound 26 and Compound 141 in the treatment of female BALB/c nude mice bearing A375 xenografts are shown in Table 62-Table 72 and FIG. 52-FIG. 73.

[1] = 0.75 mg/kg p.o. BID × 1 day, post 2nd dose, 48 h, BQL: below the lower limit of quantitation
[2] = 1 mg/kg p.o. TID × 1 day, post 3rd dose, 48 h, BQL: below the lower limit of quantitation
[3] = Compound 141, 1.5 mg/kg p.o. BID × 1 day, post 2nd dose, 36 h, BQL: below the lower limit of quantitation
[4] = Compound 141, 1.5 mg/kg p.o. BID × 1 day, post 2nd dose, 48 h, BQL: below the lower limit of quantitation
[5] = mouse, brain, po, 0.75 mg/kg, 0.75 mg/kg p.o. BID × 1 day, post 2nd dose, read-out: Mean Concentration in Brain ± SEM
[6] = mouse, brain, po, 1 mg/kg, 1 mg/kg p.o. TID × 1 day, post 3rd dose, read-out: Mean Concentration in Brain ± SEM
[7] = mouse, brain, po, 1.5 mg/kg, Compound 141, 1.5 mg/kg p.o. BID × 1 day, post 2nd dose, read-out: Mean Concentration in Brain ± SEM
[8] = mouse, brain, po, 3 mg/kg, 3 mg/kg p.o. QD × 1 day, read-out: Mean Concentration in Brain ± SEM
[9] = mouse, brain, po, 5 mg/kg, 5 mg/kg p.o. BID × 1 day, post 2nd dose, read-out: Mean Concentration in Brain ± SEM
[10] = mouse, plasma, po, 0.75 mg/kg, 0.75 mg/kg p.o. BID × 1 day, post 1st dose, read-out: Mean Concentration in Plasma ± SEM
[11] = mouse, plasma, po, 0.75 mg/kg, 0.75 mg/kg p.o. BID × 1 day, post 2nd dose, read-out: Mean Concentration in Plasma ± SEM
[12] = mouse, plasma, po, 1 mg/kg, 1 mg/kg p.o. TID × 1 day, post 1st dose, read-out: Mean Concentration in Plasma ± SEM
[13] = mouse, plasma, po, 1 mg/kg, 1 mg/kg p.o. TID × 1 day, post 2nd dose, read-out: Mean Concentration in Plasma ± SEM
[14] = mouse, plasma, po, 1 mg/kg, 1 mg/kg p.o. TID × 1 day, post 3rd dose, read-out: Mean Concentration in Plasma ± SEM

CCN(C)S(=O)(=O)Nc1ccc(F)c(Oc2ccc3ncn(C4CC5(CCN(C6CC7(C6)CN(c6cc8c(cc6F)c(N6CCC(=O)NC6=O)nn8C)C7)CC5)C4)c(=O)c3c2)c1C#N (centres unmarked) [Compound 141, 6-[2-cyano-3-[[ethyl(methyl)sulfamoyl]amino]-6-fluoro-phenoxy]-3-[7-[2-[3-(2,4-dioxohexahydropyrimidin-1-yl)-5-fluoro-1-methyl-indazol-6-yl]-2-azaspiro[3.3]heptan-6-yl]-7-azaspiro[3.5]nonan-2-yl]-4-oxo-quinazoline]
Mean Concentration in Brain ± SEM (0.75 mg/kg p.o. BID × 1 day, post 2nd dose, 24 h, BQL: below the lower limit of quantitation): BQL^a | Mean Concentration in Brain ± SEM [1]: BQL | Mean Concentration in Tumor ± SEM [1]: BQL | Mean Concentration in Brain ± SEM (1 mg/kg p.o. TID × 1 day, post 3rd dose, 24 h, BQL: below the lower limit of quantitation): BQL^a | Mean Concentration in Brain ± SEM [2]: BQL | Mean Concentration in Plasma ± SEM [2]: BQL | Mean Concentration in Plasma ± SEM (3 mg/kg p.o. QD × 1 day, 48 h, BQL: below the lower limit of quantitation): BQL^a | Mean Concentration in Brain ± SEM (5 mg/kg p.o. BID × 1 day, post 2nd dose, 24 h, BQL: below the lower limit of quantitation): BQL^a | Mean Concentration in Brain ± SEM (Compound 141, 1.5 mg/kg p.o. BID × 1 day, post 2nd dose, 24 h, BQL: below the lower limit of quantitation): BQL^a | Mean Concentration in Brain ± SEM [3]: BQL | Mean Concentration in Plasma ± SEM [3]: BQL | Mean Concentration in Brain ± SEM [4]: BQL | Mean Concentration in Plasma ± SEM [4]: BQL | concentration at 1 h [5]: 26.7 ± 2.39 ng/g | concentration at 4 h [5]: 10.2 ± 1.3 ng/g | concentration at 10 h [5]: 6.61 ± 2 ng/g | concentration at 1 h [6]: 22 ± 3.26 ng/g | concentration at 4 h [6]: 17.9 ± 3.94 ng/g | concentration at 10 h [6]: 14.6 ± 3.36 ng/g | concentration at 0.25 h [7]: 11.2 ± 1.24 ng/g | concentration at 0.5 h [7]: 25.5 ± 2.96 ng/g | concentration at 1 h [7]: 44.1 ± 5.96 ng/g | concentration at 2 h [7]: 39.3 ± 0.318 ng/g | concentration at 4 h [7]: 23.5 ± 4.95 ng/g | concentration at 10 h [7]: 3.51 ± 1.17 ng/g | concentration at 1 h [8]: 70.5 ± 4.29 ng/g | concentration at 4 h [8]: 37.6 ± 9.11 ng/g | concentration at 10 h [8]: 11 ± 1.97 ng/g | concentration at 24 h (mouse, brain, po, 3 mg/kg, 3 mg/kg p.o. QD × 1 day, 24 h, read-out: Mean Concentration in Brain ± SEM): 3.31 ng/g | concentration at 48 h (mouse, brain, po, 3 mg/kg, 3 mg/kg p.o. QD × 1 day, 48 h, read-out: Mean Concentration in Brain ± SEM): 1.79 ng/g | concentration at 1 h [9]: 126 ± 6.12 ng/g | concentration at 4 h [9]: 52.9 ± 12.8 ng/g | concentration at 10 h [9]: 13.1 ± 2.79 ng/g | concentration at 48 h (mouse, brain, po, 5 mg/kg, 5 mg/kg p.o. BID × 1 day, post 2nd dose, 48 h, read-out: Mean Concentration in Brain ± SEM): 4 ng/g | concentration at 0.25 h [10]: 340 ± 19 ng/mL | concentration at 0.5 h [10]: 832 ± 61.1 ng/mL | concentration at 1 h [10]: 1070 ± 94.7 ng/mL | concentration at 2 h [10]: 972 ± 13.5 ng/mL | concentration at 4 h [10]: 491 ± 20.2 ng/mL | concentration at 8 h [10]: 66.3 ± 5.93 ng/mL | concentration at 12 h (mouse, plasma, po, 0.75 mg/kg, 0.75 mg/kg p.o. BID × 1 day, post 1st dose, 12 h, read-out: Mean Concentration in Plasma ± SEM): 26.5 ± 4.92 ng/mL | concentration at 0.25 h [11]: 297 ± 13.2 ng/mL | concentration at 0.5 h [11]: 502 ± 84.1 ng/mL | concentration at 1 h [11]: 778 ± 59.4 ng/mL | concentration at 2 h [11]: 818 ± 118 ng/mL | concentration at 4 h [11]: 247 ± 24.5 ng/mL | concentration at 10 h [11]: 111 ± 18.4 ng/mL | concentration at 24 h (mouse, plasma, po, 0.75 mg/kg, 0.75 mg/kg p.o. BID × 1 day, post 2nd dose, 24 h, read-out: Mean Concentration in Plasma ± SEM): 1.09 ± 0.203 ng/mL | concentration at 36 h (mouse, plasma, po, 0.75 mg/kg, 0.75 mg/kg p.o. BID × 1 day, post 2nd dose, 36 h, read-out: Mean Concentration in Plasma ± SEM): 0.764 ng/mL | concentration at 48 h (mouse, plasma, po, 0.75 mg/kg, 0.75 mg/kg p.o. BID × 1 day, post 2nd dose, 48 h, read-out: Mean Concentration in Plasma ± SEM): 4.96 ng/mL | concentration at 0.25 h [12]: 438 ± 25.4 ng/mL | concentration at 0.5 h [12]: 836 ± 10.8 ng/mL | concentration at 1 h [12]: 1130 ± 180 ng/mL | concentration at 2 h [12]: 1000 ± 55.2 ng/mL | concentration at 4 h [12]: 699 ± 129 ng/mL | concentration at 8 h [12]: 242 ± 30.4 ng/mL | concentration at 0.25 h [13]: 334 ± 54.7 ng/mL | concentration at 2 h [13]: 879 ± 74.6 ng/mL | concentration at 8 h [13]: 218 ± 16.3 ng/mL | concentration at 0.25 h [14]: 346 ± 65.5 ng/mL | concentration at 0.5 h [14]: 694 ± 54.4 ng/mL | concentration at 1 h [14]: 664 ± 72 ng/mL | concentration at 2 h [14]: 1600 ± 124 ng/mL | concentration at 4 h [14]: 563 ± 173 ng/mL | concentration at 10 h [14]: 415 ± 74.4 ng/mL | concentration at 24 h (mouse, plasma, po, 1 mg/kg, 1 mg/kg p.o. TID × 1 day, post 3rd dose, 24 h, read-out: Mean Concentration in Plasma ± SEM): 10.5 ± 5.67 ng/mL | concentration at 36 h (mouse, plasma, po, 1 mg/kg, 1 mg/kg p.o. TID × 1 day, post 3rd dose, 36 h, read-out: Mean Concentration in Plasma ± SEM): 3.2 ± 0.392 ng/mL | concentration at 0.25 h (mouse, plasma, po, 1.5 mg/kg, Compound 141, 1.5 mg/kg p.o. BID × 1 day, post 1st dose, read-out: Mean Concentration in Plasma ± SEM): 710 ± 61.9 ng/mL
